Patent US9701685B2, “Spiropyrrolidines as MDM2 inhibitors” (HUDSON BIOPHARMA INC., priority 2014, dated 2017)

Tests used:
SJSA-1 = test: Cell proliferation inhibition (CCK-8) against SJSA-1; type: cell-based; conditions: SJSA-1 human osteosarcoma cells, 5 days
Description: Cellular data of selected compounds against SW480 and SJSA-1 was conducted according to the following protocol.
Cells in the logarithmic growth phase were seeded into 96-well plates (Corning, 3599; 180 μL/well; 3000 cells/well for both SW480 and SJSA-1 cell lines) and cultured in an incubator (Thermo, 3111) for 24 h. Cells were then treated in triplicate by adding 20 μL/well solution containing different concentrations of the tested compounds in 5% CO2 at 37° C. for 5 days. After that, cells were treated for additional 4 h by adding 10 μL/well Cell Counting Kit-8 (CCK-8; DojinDo, CK04) solution. Finally, the absorbance was read at 450 nm with a microplate reader spectra-MAX190 (Molecular Devices, Sunnyvale, Calif.). The IC50 value was determined with SofeMax Pro, a software equipped in this reader. The cell proliferation inhibition rate was calculated as: proliferation inhibition (%)=[1-(A450 treated/A450 control)]×100%.
All the tested compounds could be dissolved in DMSO at 10^−2 M (as stock solution). […] The compounds were diluted at 9 3-fold serial concentrations beginning at the initial concentration of 10 μM (i.e., the highest final concentration to treat the cells). The detailed drug dilution protocol is: Add 5 μL stock solution (10^−2 M) into 495 μL medium, transfer 125 μL of the resulting solution (100 μM) into 250 μL medium, and repeat this till the 9th resulting concentration of 15.2 nM. Pipet 20 μL of each drug dilution into cell plates.

GST-tag full length MDM2 = GST-tag full length MDM2 (Homo sapiens (Human), UniProt Q00987); test: MDM2-p53 TR-FRET Binding Assays; conditions: MDM2 / biotin p53 peptide
GST-tag full length MDM2, sequence (Q00987 whole entry): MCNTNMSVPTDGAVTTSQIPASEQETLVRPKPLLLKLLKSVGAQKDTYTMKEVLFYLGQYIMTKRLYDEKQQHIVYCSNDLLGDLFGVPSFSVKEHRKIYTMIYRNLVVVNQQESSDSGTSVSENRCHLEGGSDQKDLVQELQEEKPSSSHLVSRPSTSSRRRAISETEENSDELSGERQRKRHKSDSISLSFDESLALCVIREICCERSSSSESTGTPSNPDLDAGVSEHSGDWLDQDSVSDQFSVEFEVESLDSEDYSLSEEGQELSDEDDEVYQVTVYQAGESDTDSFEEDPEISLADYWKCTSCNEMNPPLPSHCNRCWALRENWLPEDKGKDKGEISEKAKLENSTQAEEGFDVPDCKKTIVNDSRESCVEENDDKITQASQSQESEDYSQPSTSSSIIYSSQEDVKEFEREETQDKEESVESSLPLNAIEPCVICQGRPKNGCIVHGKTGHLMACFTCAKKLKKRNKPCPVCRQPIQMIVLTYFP
Text: MDM2-p53 TR-FRET Binding Assays
Examples are listed in the following.

Row | SMILES | IC50 (SJSA-1; Homo sapiens, SJSA-1, 120 h) | IC50 (GST-tag full length MDM2) | IC50 (SJSA-1)
1 | COc1cc(C(N)=O)ccc1NC(=O)[C@@H]1N[C@@H](C[C@@H](C)C(F)(F)F)[C@@]2(C(=O)Nc3cc(Cl)ccc32)[C@H]1c1cccc(Cl)c1F [Example 28, (2′R,3R,3′S,5′S)-N-(4-carbamoyl-2-methoxy-phenyl)-6-chloro-3′-(3-chloro-2-fluoro-phenyl)-2-oxo-5′-[(2R)-3,3,3-trifluoro-2-methyl-propyl]spiro[indoline-3,4′-pyrrolidine]-2′-carboxamide] | ≤ 20 nM | ≤ 3.6 nM | –
2 | COc1cc(C(=O)O)ccc1NC(=O)[C@@H]1N[C@@H](CC2(CF)CC2)[C@@]2(C(=O)Nc3cc(Cl)ccc32)[C@H]1c1cccc(Cl)c1F [Example 76, 4-[[(2′R,3R,3′S,5′S)-6-chloro-3′-(3-chloro-2-fluoro-phenyl)-5′-[[1-(fluoromethyl)cyclopropyl]methyl]-2-oxo-spiro[indoline-3,4′-pyrrolidine]-2′-carbonyl]amino]-3-methoxy-benzoic acid] | ≤ 20 nM | ≤ 7.2 nM | –
3 | COC(=O)c1ccc(NC(=O)[C@@H]2N[C@@H](CC3(CF)CC3)C3(C(=O)Nc4cc(Cl)ccc43)[C@H]2c2cccc(Cl)c2F)c(OC)c1 (stereo partly shown) [Example 73, 4-{[6-chloro-4′-(3-chloro-2-fluoro-phenyl)-2′-(1-fluoromethyl-cyclopropylmethyl)-2-oxo-1,2-dihydro-spiro[indole-3,3′-pyrrolidin]e-5′-carbonyl]-amino}-3-methoxy-benzoic acid methyl ester] | – | ≤ 7.2 nM | –
4 | COc1cc(C(=O)O)ccc1NC(=O)[C@@H]1N[C@@H](C[C@@H](C)C(F)(F)F)[C@@]2(C(=O)Nc3cc(Cl)ccc32)[C@H]1c1cccc(Cl)c1F (racemic) [Example 11, 4-[[(2′R,3R,3′S,5′S)-6-chloro-3′-(3-chloro-2-fluoro-phenyl)-2-oxo-5′-[(2R)-3,3,3-trifluoro-2-methyl-propyl]spiro[indoline-3,4′-pyrrolidine]-2′-carbonyl]amino]-3-methoxy-benzoic acid] | ≤ 71 nM | ≤ 7.2 nM | –
5 | CCOC(=O)c1ccc(NC(=O)[C@@H]2N[C@@H](C[C@H](C)C(F)(F)F)[C@@]3(C(=O)Nc4cc(Cl)ccc43)[C@H]2c2cccc(Cl)c2F)c(OC)c1 [Example 9b, ethyl 4-[[(2′R,3R,3′S,5′S)-6-chloro-3′-(3-chloro-2-fluoro-phenyl)-2-oxo-5′-[(2S)-3,3,3-trifluoro-2-methyl-propyl]spiro[indoline-3,4′-pyrrolidine]-2′-carbonyl]amino]-3-methoxy-benzoate] | 71 to 550 nM | – | –
6 | COc1cc(C(N)=O)ccc1NC(=O)[C@@H]1N[C@@H](CC2(CF)CC2)[C@@]2(C(=O)Nc3cc(Cl)ccc32)[C@H]1c1cccc(Cl)c1F [Example 77, (2′R,3R,3′S,5′S)-N-(4-carbamoyl-2-methoxy-phenyl)-6-chloro-3′-(3-chloro-2-fluoro-phenyl)-5′-[[1-(fluoromethyl)cyclopropyl]methyl]-2-oxo-spiro[indoline-3,4′-pyrrolidine]-2′-carboxamide] | ≤ 20 nM | ≤ 7.2 nM | –
7 | COc1cc(C(=O)O)ccc1NC(=O)[C@@H]1N[C@@H](C[C@H](C)C(F)(F)F)[C@@]2(C(=O)Nc3cc(Cl)ccc32)[C@H]1c1cccc(Cl)c1F (racemic) [Example 10, 4-[[(2′R,3R,3′S,5′S)-6-chloro-3′-(3-chloro-2-fluoro-phenyl)-2-oxo-5′-[(2S)-3,3,3-trifluoro-2-methyl-propyl]spiro[indoline-3,4′-pyrrolidine]-2′-carbonyl]amino]-3-methoxy-benzoic acid] | ≤ 71 nM | ≤ 7.2 nM | –
8 | COc1cc(C(N)=O)ccc1NC(=O)[C@@H]1N[C@@H](CC(C)(C)CF)[C@@]2(C(=O)Nc3cc(Cl)ccc32)C1c1cccc(Cl)c1F (single isomer, unassigned) [Example 22] | ≤ 20 nM | ≤ 3.6 nM | –
9 | COc1cc(C(N)=O)ccc1NC(=O)[C@@H]1N[C@@H](C[C@@H](C)C(F)(F)F)[C@@]2(C(=O)Nc3cc(Cl)ccc32)[C@H]1c1cccc(Cl)c1F (racemic) [Example 13, (2′R,3R,3′S,5′S)-N-(4-carbamoyl-2-methoxy-phenyl)-6-chloro-3′-(3-chloro-2-fluoro-phenyl)-2-oxo-5′-[(2R)-3,3,3-trifluoro-2-methyl-propyl]spiro[indoline-3,4′-pyrrolidine]-2′-carboxamide] | ≤ 71 nM | ≤ 7.2 nM | –
10 | CCOC(=O)c1ccc(NC(=O)[C@@H]2N[C@@H](C[C@@H](C)C(F)(F)F)[C@@]3(C(=O)Nc4cc(Cl)ccc43)[C@H]2c2cccc(Cl)c2F)c(OC)c1 [Example 26, ethyl-4-[[(2′R,3′R,3′S,5′S)-6-chloro-3′(3-chloro-2-fluoro-phenyl)-2-oxo-5′-[(2R)-3,3,3-trifluoro-2-methyl-propyl]spiro[indoline-2,4′-pyrrolidine]-2′-carbonyl]amino]-3-methoxy-benzoate] | – | ≤ 7.2 nM | ≤ 500 nM
11 | COc1cc(C(=O)O)ccc1NC(=O)[C@@H]1N[C@@H](CC2(CF)CC2)C2(C(=O)Nc3cc(Cl)ccc32)[C@H]1c1cccc(Cl)c1F (stereo partly shown) [Example 74, 4-{[6-chloro-4′-(3-chloro-2-fluoro-phenyl)-2′-(1-fluoromethyl-cyclopropylmethyl)-2-oxo-1,2-dihydro-spiro[indole-3,3′-pyrrolidin]e-5′-carbonyl]-amino}-3-methoxy-benzoic acid] | ≤ 20 nM | ≤ 7.2 nM | –
12 | COc1cc(C(=O)O)ccc1NC(=O)[C@@H]1N[C@@H](CC(C)(C)CF)[C@@]2(C(=O)Nc3cc(Cl)ccc32)C1c1cccc(Cl)c1F (mixture of isomers) [Example 19, 4-[(2′R,3R,3′S,5′S)-6-chloro-3′-(3-chloro-2-fluoro-phenyl)-5′-(3-fluoro-2,2-dimethyl-propyl)-2-oxo-spiro[indoline-3,4′-pyrrolidine]-2′-carbonyl]amino-3-methoxy-benzoic acid] | ≤ 71 nM | ≤ 3.6 nM | –
13 | COc1cc(C(N)=O)ccc1NC(=O)[C@@H]1N[C@@H](CC(C)(C)CF)[C@@]2(C(=O)Nc3cc(Cl)ccc32)C1c1cccc(Cl)c1F (mixture of isomers) [Example 20, (4-carbamoyl-2-methoxy-phenyl) (2′R,3R,3′S,5′S)-6-chloro-3′-(3-chloro-2-fluoro-phenyl)-5′-(3-fluoro-2,2-dimethyl-propyl)-2-oxo-spiro[indoline-3,4′-pyrrolidine]-2′-carboxamide] | ≤ 71 nM | ≤ 3.6 nM | –
14 | COc1cc(C(=O)O)ccc1NC(=O)[C@@H]1N[C@@H](CC(C)(C)CF)[C@@]2(C(=O)Nc3cc(Cl)ccc32)[C@H]1c1cccc(Cl)c1F [Example 21, 4-[(2′R,3R,3′S,5′S)-6-chloro-3′-(3-chloro-2-fluoro-phenyl)-5′-(3-fluoro-2,2-dimethyl-propyl)-2-oxo-spiro[indoline-3,4′-pyrrolidine]-2′-carbonyl]amino-3-methoxy-benzoic acid] | ≤ 20 nM | ≤ 3.6 nM | –
15 | COc1cc(C(N)=O)ccc1NC(=O)[C@@H]1N[C@@H](C[C@H](C)C(F)(F)F)[C@@]2(C(=O)Nc3cc(Cl)ccc32)[C@H]1c1cccc(Cl)c1F [Example 66, (2′R,3R,3′S,5′S)-N-(4-carbamoyl-2-methoxy-phenyl)-6-chloro-3′-(3-chloro-2-fluoro-phenyl)-2-oxo-5′-[(2S)-3,3,3-trifluoro-2-methyl-propyl]spiro[indoline-3,4′-pyrrolidine]-2′-carboxamide] | ≤ 20 nM | ≤ 3.6 nM | –
16 | COc1cc(C(=O)O)ccc1NC(=O)[C@@H]1N[C@@H](C[C@@H](C)C(F)(F)F)[C@@]2(C(=O)Nc3cc(Cl)ccc32)[C@H]1c1cccc(Cl)c1F [Example 27, 4-[[(2′R,3R,3′S,5′S)-6-chloro-3′-(3-chloro-2-fluoro-phenyl)-2-oxo-5′-[(2R)-3,3,3-trifluoro-2-methyl-propyl]spiro[indoline-3,4′-pyrrolidine]-2′-carbonyl]amino]-3-methoxy-benzoic acid] | ≤ 20 nM | ≤ 3.6 nM | –
17 | COc1cc(C(N)=O)ccc1NC(=O)[C@@H]1N[C@@H](CC2(CF)CC2)C2(C(=O)Nc3cc(Cl)ccc32)[C@H]1c1cccc(Cl)c1F (stereo partly shown) [Example 75, 6-chloro-4′-(3-chloro-2-fluoro-phenyl)-2′-(1-fluoromethyl-cyclopropylmethyl)-2-oxo-1,2-dihydro-spiro[indole-3,3′-pyrrolidine]-5-carboxylic acid (4-carbamoyl-2-methoxy-phenyl)-amide] | ≤ 20 nM | ≤ 7.2 nM | –
18 | COc1cc(C(N)=O)ccc1NC(=O)[C@@H]1N[C@@H](C[C@H](C)C(F)(F)F)[C@@]2(C(=O)Nc3cc(Cl)ccc32)[C@H]1c1cccc(Cl)c1F (racemic) [Example 12, (2′R,3R,3′S,5′S)-N-(4-carbamoyl-2-methoxy-phenyl)-6-chloro-3′-(3-chloro-2-fluoro-phenyl)-2-oxo-5′-[(2S)-3,3,3-trifluoro-2-methyl-propyl]spiro[indoline-3,4′-pyrrolidine]-2′-carboxamide] | ≤ 71 nM | ≤ 7.2 nM | –
